In brackets after ≈: the same amount, converted by molar mass.
What was measured:
Type in all cases: physicochemical
[1] = Solubility test (UV spectrophotometer, saturated solutions shaken 24 hours); details: 25° C.; for Solubility, Water medium pH = 1.2: pH=1.2 hydrochloric acid solution; for Solubility, Water medium pH = 4.5: pH=4.5 phosphate buffer solution; for Solubility, Water medium pH = 6.8: pH=6.8 phosphate buffer solution; for Solubility, Water medium: water (purified water)
Method: Detection instrument: Ultraviolet spectrophotometer/Evolution 300
The following solutions with pH=1.2, pH=4.5, and pH=6.8 and water were used as the solvent, and the solvent preparation process was as follows:
(1) pH=1.2 hydrochloric acid solution: To 7.65 mL of hydrochloric acid was added 1000 mL of water, and the mixture was shaken uniformly to obtain the target solution.
(2) pH=4.5 phosphate buffer solution: 6.8 g of potassium dihydrogen phosphate was taken and diluted with water to 1000 mL, and the mixture was shaken uniformly to obtain the target solution.
(2) pH=6.8 phosphate buffer solution: 6.8 g of potassium dihydrogen phosphate and 0.896 g of sodium hydroxide were taken and diluted with water to 1000 mL, and the mixture was shaken uniformly to obtain the target solution.
(4) Water: purified water
Test tubes with stopper were taken, and 10 mL of dissolution media at various pH values were precisely added to the test tubes respectively, and excessive stock drugs were added until supersaturated solutions were formed. The adding amounts were recorded. The solutions were shaken uniformly, sealed with stoppers, and shaken for 24 hours in a shaker. 2 mL of solutions were taken out at different time points respectively, and centrifuged. The resulting supernatants were taken, filtered, and the subsequent filtrates were taken for later use.
The above-mentioned saturated solutions in different solvents were taken, and solvents were added to dilute the solutions to certain volumes. The absorbances were measured at a wavelength of 287 nm.
Preparation of a solution of the reference substance: an appropriate amount of the compound represented by Formula 1 was taken as the reference substance, and precisely weighed. A solvent was added to dissolve and dilute the reference compound to produce a solution containing about 10 μg of the compound represented by Formula 1 per 1 mL. The absorbance was measured at a wavelength of 287 nm to calculate the solubility.
The salts obtained in Examples 1 and 3-17 and the compound represented by Formula 1 were subjected to the solubility test in media and the test results were shown in the following table: […]

[2] = DSC and TGA tests; details: onset temperature
Method: 6. Differential Scanning Calorimetry-Thermogravimetric Analysis (DSC-TGA)
Detection instrument: NETZSCH STA 449F3
Temperature range: 20° C.-350° C.;
Heating rate: 10.0 (K/min);
7. Differential Scanning Calorimetry (DSC)
Detection instrument: NETZSCH DSC 214 Polyma
Temperature range: 20° C.-250° C.;
Heating rate: 5.0 (K/min);
8. Thermogravimetric Analysis (TGA)
Detection instrument: METTLER and SDT Q600
The salts obtained in Examples 1 and 3-17 and the compound represented by Formula 1 were subjected to the DSC and TGA tests in media, and the test results were shown in the following table: […]

[3] = Hygroscopicity test; details: 25±1° C., relative humidity 80%±2% (DVS, 80% RH)
Method: Detection instrument: XPE105DR
(1) A dry stoppered glass weighing bottle was taken, placed in a suitable constant-temperature desiccator at 25° C. 1° C. (with a saturated solution of ammonium chloride or ammonium sulfate in the lower part) or an artificial climate box (with the set temperature of 25° C.±1° C. and the relative humidity of 80%±2%) on the day before the test, and precisely weighed and recorded as the weight (m1).
(2) An appropriate amount of the test sample was taken and spread in the above-mentioned weighing bottle. The thickness of the test sample was generally about 1 mm, and the bottle was precisely weighed and recorded as the weight (m2).
(3) The stopper was removed to open the weighing bottle, and the opened weighing bottle and the stopper were placed under the above-mentioned constant temperature and humidity conditions for 24 hours.
(4) The opened weighing bottle was stoppered, precisely weighed, and recorded as the weight (m3).
Percentage increase in mass=(m3−m2)/(m2−m1)×100%
(5) The description of hygroscopicity characteristics and the definition for the weight gain due to hygroscopicity:
Deliquescence: Sufficient water was absorbed to form a liquid.
Very hygroscopic: the weight gain due to hygroscopicity was not less than 15%.
Hygroscopic: the weight gain due to hygroscopicity was less than 15% but not less than 2%.
Slightly hygroscopic: the weight gain due to hygroscopicity was less than 2% but not less than 0.2%.
Not or nearly not hygroscopic: the weight gain due to hygroscopicity was less than 0.2%.
Appropriate amounts of the salt samples obtained from Examples 1 and 3-17 were subjected to the hygroscopicity test at a temperature of 25±1° C. under a relative humidity of 80%±2%, and the results were as follows: […]

[4] = Accelerated stability test
Method: Appropriate amounts of the salt samples obtained from Examples 1 and 3-17 were placed at a temperature of 25±2° C. under 0%±5% RH in an open environment for 10 days and at a temperature of 40±2° C. under 75%±5% RH in an open environment for 10 days respectively to perform the accelerated tests, and the results were as follows: […]

[5] = Placed at 25 ± 2° C. under 0% ± 5% RH in an open environment for 10 days
[6] = Placed at 40 ± 2° C. under 75% ± 5% RH in an open environment for 10 days

| Solubility, Water medium pH = 1.2 [1] [mg/mL] | Solubility, Water medium pH = 4.5 [1] [mg/mL] | Solubility, Water medium pH = 6.8 [1] [mg/mL] | Solubility, Water medium [1] [mg/mL] | TGA: starting to lose the acid [2] | TGA: starting to lose the water of crystallization [2] | Weight gain due to hygroscopicity [3] [%] | Appearance [4, 5] | Appearance [4, 6] | SMILES | Hygroscopicity [3] |
| --- | --- | --- | --- | --- | --- | --- | --- | --- | --- | --- |
| 36.41 | 14.36 | 10.46 | 9.74 (≈ 22 mM) | ~180 °C (see FIG. 28) | crystallization at about 40° C.; | 1.43 |  |  | CC(C)n1c(Nc2cccnc2)nc2cnc(Nc3ccc(N4CCN(C)CC4)cc3)nc21 [Example 8] | Slightly hygroscopic (the weight gain due to hygroscopicity was less than 2% but not less than 0.2%.) |
| 42.39 | 2.70 | 0.14 | 3.09 (≈ 6.97 mM) | ~140 °C (see FIG. 33) | crystallization at about 40° C.; | 0.11 |  |  | CC(C)n1c(Nc2cccnc2)nc2cnc(Nc3ccc(N4CCN(C)CC4)cc3)nc21 [Example 12] |  |
| 59.71 | 8.42 | 1.12 | 5.06 (≈ 11.4 mM) | ~140 °C (see FIG. 35) | crystallization at about 40° C.; | 0.05 |  |  | CC(C)n1c(Nc2cccnc2)nc2cnc(Nc3ccc(N4CCN(C)CC4)cc3)nc21 [Example 13] |  |
| 96.58 | 45.67 | 27.84 | 63.57 (≈ 143 mM) | ~80 °C (see FIG. 39) | crystallization at about 40° C.; | 2.59 | Off-white solid | Off-white solid | CC(C)n1c(Nc2cccnc2)nc2cnc(Nc3ccc(N4CCN(C)CC4)cc3)nc21 [Example 15] | Hygroscopic (the weight gain due to hygroscopicity was less than 15% but not less than 2%.) |
| 44.51 | 15.17 | 11.48 | 10.50 (≈ 23.7 mM) | ~170 °C (see FIG. 29) | crystallization at about 40° C.; | 1.43 |  |  | CC(C)n1c(Nc2cccnc2)nc2cnc(Nc3ccc(N4CCN(C)CC4)cc3)nc21 [Example 9] | Slightly hygroscopic (the weight gain due to hygroscopicity was less than 2% but not less than 0.2%.) |
| 43.07 | 6.51 | 12.24 | 6.91 (≈ 15.6 mM) | ~180 °C (see FIG. 27) | crystallization at about 40° C.; | 1.19 | Yellow solid | Yellow solid | CC(C)n1c(Nc2cccnc2)nc2cnc(Nc3ccc(N4CCN(C)CC4)cc3)nc21 [Example 7] | Slightly hygroscopic (the weight gain due to hygroscopicity was less than 2% but not less than 0.2%.) |
| 54.70 | 14.59 | 12.05 | 9.68 (≈ 21.8 mM) | ~170 °C (see FIG. 26) | crystallization at about 40° C.; | 1.02 | Yellow solid | Yellow solid | CC(C)n1c(Nc2cccnc2)nc2cnc(Nc3ccc(N4CCN(C)CC4)cc3)nc21 [Example 6] | Slightly hygroscopic (the weight gain due to hygroscopicity was less than 2% but not less than 0.2%.) |
| 129.50 | 90.03 | 90.09 | 76.59 (≈ 173 mM) | ~240 °C (See FIG. 40) | crystallization at about 40° C.; | 7.67 |  |  | CC(C)n1c(Nc2cccnc2)nc2cnc(Nc3ccc(N4CCN(C)CC4)cc3)nc21 [Example 16] | Hygroscopic (the weight gain due to hygroscopicity was less than 15% but not less than 2%.) |
| 360.00 | 207.53 | 153.30 | 212.73 (≈ 480 mM) | ~120 °C (see FIG. 21) | crystallization at about 40° C.; | 5.86 |  |  | CC(C)n1c(Nc2cccnc2)nc2cnc(Nc3ccc(N4CCN(C)CC4)cc3)nc21 [Example 3] | Hygroscopic (the weight gain due to hygroscopicity was less than 15% but not less than 2%.) |
| 66.52 | 13.98 | 6.36 | 2.49 (≈ 5.61 mM) | ~170 °C (see FIG. 30) | crystallization at about 40° C.; | 0.54 | Yellow solid | Yellow solid | CC(C)n1c(Nc2cccnc2)nc2cnc(Nc3ccc(N4CCN(C)CC4)cc3)nc21 [Example 10] | Slightly hygroscopic (the weight gain due to hygroscopicity was less than 2% but not less than 0.2%.) |
| 87.38 | 16.13 | 8.61 | 27.78 (≈ 62.6 mM) | ~220 °C (see FIG. 31) | crystallization at about 40° C.; | 0.68 | Yellow solid | Yellow solid | CC(C)n1c(Nc2cccnc2)nc2cnc(Nc3ccc(N4CCN(C)CC4)cc3)nc21 [Example 11] | Slightly hygroscopic (the weight gain due to hygroscopicity was less than 2% but not less than 0.2%.) |
| 33.29 | 21.64 | 31.39 | 16.51 (≈ 37.2 mM) | ~210 °C (see FIG. 41) | crystallization at about 40° C.; | 1.34 |  |  | CC(C)n1c(Nc2cccnc2)nc2cnc(Nc3ccc(N4CCN(C)CC4)cc3)nc21 [Example 17] | Slightly hygroscopic (the weight gain due to hygroscopicity was less than 2% but not less than 0.2%.) |

— US20230144619A1, “SALT OF ARYLAMINOPURINE DERIVATIVE, PREPARATION METHOD THEREFOR AND USE THEREOF” (CSPC Zhongqi Pharmaceutical Technology (Shijiazhuang) Co., …, priority 2020, published 2023)
